Assay: Chronic PAR treatment after chronic social defeat stress: behavioral tests (open field, social avoidance, forced swim)
Format: in vivo
Settings: FKBP51-deleted versus wild type mice
From the text: After cessation of the stressor, groups were subdivided into vehicle-treated and paroxetine-treated animals, resulting in 8 groups (n = 7-13 per group). The treatment phase lasted for three weeks. The behavioral tests took place during the last week of the paroxetine treatment. The CSDS paradigm lasted for 21 days. Briefly, the experimental mice were introduced into the home cage (45 cm x 25 cm) of a dominant resident mouse and defeated shortly after. When the defeat was achieved, the animals were separated by a wire mesh, preventing physical but allowing sensory contact for 24 h. Each day, stressed animals were defeated by another unfamiliar, dominant resident mouse in order to exclude a repeated encounter throughout the experiment. The daily defeat was performed between 11:00 and 16:00 h; varying starting times reduced the predictability of the stressor and therefore minimized a potential habituation effect. […] Both stress and control animals were handled daily during the stress procedure; body weight for all mice was assessed at the beginning of the experiment, after the cessation of the stress period, and on the day of killing. […] All tests were analyzed using an automated videotracking system (Anymaze 4.20, Stoelting, Wood Dale, IL). […] Time spent immobile (floating) and time spent struggling was scored by an experienced observer, blind to treatment or condition of the animals.

**Q.** For Fc1ccc([C@@H]2CCNC[C@H]2COc2ccc3c(c2)OCO3)cc1 [PAR, paroxetine], which “enhancing struggling and reducing floating, forced swim test” value is on record?
**A.** significantly less effective
